The text below walks through data of patent EP0403398A1, “New thioformamide derivatives” (RHONE-POULENC SANTE, priority 1989, dated 1990).

For this test, the system named is isolated rat aorta. Put plainly: Test A: activity against contractions induced by low K+ concentrations in the isolated rat aorta. The settings on record: concentration reducing the 20mM K⁺-induced contraction by 90%; rat thoracic aorta strips denuded of endothelium, Krebs solution, cumulative concentrations; read-out: Activity Test A EC₉₀. The procedure:
The test methods used were adapted from those described by Winslow et al [Eur.J.Pharmacol., 131, 219-228 (1986)] and Karaki [J.Pharmacol. Methods, 18, 1-21 (1987)] for differentiating vaso-relaxant activity. Test A : Activity against contractions induced by low K⁺ concentrations in the isolated rat aorta Thoracic aorta was removed from rats and transverse strips, denuded of endothelium, were suspended in a bath containing Krebs solution. The tension was recorded and a contraction induced by addition of 20mM K⁺ (potassium ion) to the bathing solution. The test compound was added to the bath as a solution in increasing cumulative concentration. The concentration in the bathing solution of the test compound which reduced the K⁺-induced contraction by 90% was determined and expressed in µM as the effective concentration (EC₉₀), given in Table I. Table I

On to `CNC(=S)[C@]1(c2cccnc2)CCCC[C@H]1NOCc1ccccc1` (racemic) [AA, (±)-trans-2-benzyloxyamino-N-methyl-1-(3-pyridyl)cyclohexanecarbothioamide], for which the EC90 was determined as 3 nM.
In the case of `CNC(=S)[C@]1(c2cccnc2)CCCC[C@H]1NOC` (racemic) [Compound AB, (±)-trans-2-methoxyamino-N-methyl-1-(3-pyridyl)cyclohexanecarbothioamide] it was 300 nM.
The figure for `CNC(=S)[C@]1(c2cccnc2)CCCC[C@H]1N[C@H](C)c1ccccc1` [BD, (2R,1S)-2-[(R)-1-phenylethylamino]-1-(3-pyridyl)cyclohexane-N-methylcarbothioamide] is 0.03 nM.
In the case of `CNC(=S)[C@]1(c2cccnc2)CCCC[C@H]1N[C@H](C)c1cccc2ccccc12` [BE, (2R,1S)-2-[(R)-1-(1-naphthyl)ethylamino] 1-(3-pyridyl)cyclohexane-N-methylcarbothioamide] it was 3 nM.
